pEC50: −log10 of the molar value.
The compounds below were run against human GPR40 (Homo sapiens, UniProt O14842) (assay: Inositol Phosphate Turnover (IP1) Assay 2). Details: HEK cells stably expressing human GPR40, Table 2, read-out: Human IP1.
Chain of human GPR40 (O14842 whole entry): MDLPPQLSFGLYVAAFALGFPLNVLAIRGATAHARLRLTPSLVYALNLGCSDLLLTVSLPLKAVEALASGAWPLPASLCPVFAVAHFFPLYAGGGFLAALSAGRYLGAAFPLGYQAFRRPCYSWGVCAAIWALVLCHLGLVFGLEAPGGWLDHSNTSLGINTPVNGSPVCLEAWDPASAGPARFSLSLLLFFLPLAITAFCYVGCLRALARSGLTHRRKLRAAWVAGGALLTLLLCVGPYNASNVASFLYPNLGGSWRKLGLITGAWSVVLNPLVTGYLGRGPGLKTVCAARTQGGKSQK
Format: cell-based
Parameters: expressed in transfected cells
Method: Human and mouse GPR40 stable cell-lines were generated in CHO cells stably expressing NFAT BLA (Beta-lactamase). A human GPR40 stable cell-line was generated in HEK cells stably expressing the aequorin expressing reporter. The expression plasmids were transfected using lipofectamine (Life Technologies) following manufacturer's instructions. Stable cell-lines were generated following drug selection.
The assay is performed in 384-well format. HEK cells stably expressing human GPR40 are plated at 15,000 cells per well in growth medium (DMEM/10% fetal calf serum). Cell plates are then incubated 16 hours at 37 degrees in a 5% CO2 incubator.
Measurement of Inositol Phosphate Turnover (IP1) is performed using the CisBio IP-One kit (Part number 62IPAPEB). After the 16 hour incubation, the cells are washed with HEPES buffer and 10 ul of stimulation buffer (prepared as described in the kit) is added to each well. In a separate plate, compounds are diluted in DMSO (400-fold over the final concentration in the assay well) and 25 nl is acoustically transferred to the appropriate well in the assay cell plate. The plates are then incubated for 60 minutes at 37 degrees. 10 ul of detection buffer (also prepared as described in the IP-One kit) is added to each well and the plates are incubated for 60 minutes in the dark. The plates are then read in a Perkin Elmer EnVision or equivalent reader able to measure FRET.
For `O=C(O)C[C@H](c1ccc2c(c1)OC(c1ccc(-c3ccccc3)cc1)CC2)C1CC1` (mixture of isomers) [Example 80], the pEC50 was 6.89. For `COc1cncc(-c2ccc(C3CCc4ccc([C@@H](CC(=O)O)C5CC5)cc4O3)c(F)c2)c1` (mixture of isomers) [Example 86], the pEC50 was 6.44. `CN1CCOc2cc(-c3ccc(C4CCc5ccc([C@@H](CC(=O)O)C6CC6)cc5O4)c(F)c3)ccc21` (mixture of isomers) [Example 87] showed a pEC50 of 5.86. With `COc1ccc(F)c(-c2ccc(C3CCc4ccc([C@@H](CC(=O)O)C5CC5)cc4O3)c(F)c2)c1` (mixture of isomers) [Example 88] the pEC50 was 8.19. Compound `COc1cccc(-c2ccc(C3CCc4ccc([C@@H](CC(=O)O)C5CC5)cc4O3)c(F)c2)c1` (mixture of isomers) [Example 90] has a pEC50 of 7.97. `COc1cc(-c2ccc(C3CCc4ccc([C@@H](CC(=O)O)C5CC5)cc4O3)c(F)c2)c(F)cn1` (mixture of isomers) [Example 91] was tested, and the pEC50 was 8.44. Compound `COc1ccc(Cl)c(-c2ccc(C3CCc4ccc([C@@H](CC(=O)O)C5CC5)cc4O3)c(F)c2)c1` (mixture of isomers) [Example 92] has a pEC50 of 7.72. `COc1cncc(-c2ccc(C3CCc4ccc([C@@H](CC(=O)O)C5CC5)cc4O3)c(F)c2)n1` (mixture of isomers) [Example 93] gave a pEC50 of 6.31. `COc1cc(-c2ccc(C3CCc4ccc([C@@H](CC(=O)O)C5CC5)cc4O3)c(F)c2)c(F)cc1F` (mixture of isomers) [Example 95] gave a pEC50 of 6.66. Work on `COc1cc(-c2ccc(C3CCc4ccc([C@@H](CC(=O)O)C5CC5)cc4O3)c(F)c2)ccn1` (mixture of isomers) [Example 96] yielded a pEC50 of 7.85. `COc1ccc(F)c(-c2ccc(C3CCc4ccc([C@@H](CC(=O)O)C5CC5)cc4O3)cc2OC(F)(F)F)c1` (mixture of isomers) [Example 99] gave a pEC50 of 7.54. `COc1ccc(F)c(-c2ccc(C3CCc4ccc([C@H](C5CC5)[C@H](C)C(=O)O)cc4O3)cc2OC(F)(F)F)c1` (mixture of isomers) [Example 100] was tested, and the pEC50 was 7.49. Compound `COc1ccc(F)c(-c2ccc(C3CCc4ccc([C@@H](CC(=O)O)C5CC5)cc4O3)cc2[C@H]2CCCC2(C)C)c1` (mixture of isomers) [Example 102] has a pEC50 of 7.18. `COc1ccc(F)c(-c2ccc(C3CCc4ccc([C@@H](CC(=O)O)C5CC5)cc4O3)cc2[C@@H]2CCCC2(C)C)c1` (mixture of isomers) [Example 103] was tested, and the pEC50 was 8.21. Work on `COc1ccc(F)c(-c2ccc(C3CCc4ccc([C@@H](CC(=O)O)C5CC5)cc4O3)nc2)c1` (mixture of isomers) [Example 104] yielded a pEC50 of 7.80. `C[C@H](C(=O)O)[C@H](c1ccc2c(c1)OC(c1ccc(-c3cc(O)ccc3F)cn1)CC2)C1CC1` (mixture of isomers) [Example 107] was tested, and the pEC50 was 6.88. For `COc1ccc(F)c(-c2ccc(C3CCc4ccc([C@H](C5CC5)[C@H](C)C(=O)O)cc4O3)nc2C2=CCCC2(C)C)c1` (mixture of isomers) [Example 114], the pEC50 was 8.06. `COc1ccc(F)c(-c2ccc(C3CCc4ccc([C@H](C5CC5)[C@H](C)C(=O)O)cc4O3)c(C(F)(F)F)n2)c1` (mixture of isomers) [Example 116] gave a pEC50 of 7.77. `COc1cc(-c2cnc(C3CCc4ccc([C@H](C5CC5)[C@H](C)C(=O)O)cc4O3)c(F)c2)ccn1` (mixture of isomers) [Example 121] gave a pEC50 of 7.96. Work on `COc1ccc(F)c(-c2ccc(C3CCc4ccc([C@@H](CC(=O)O)C5CC5)cc4O3)cc2C(OC)C2CC2)c1` (mixture of isomers) [Example 126] yielded a pEC50 of 7.85. Work on `COc1ccc(F)c(-c2ccc(C3CCc4ccc([C@@H](CC(=O)O)C5CC5)cc4O3)cc2C(OC)C(F)(F)F)c1` (mixture of isomers) [Example 127] yielded a pEC50 of 7.38. With `COc1ccc(F)c(-c2ccc(C3CCc4ccc([C@H](C5CC5)[C@H](C)C(=O)O)cc4O3)cc2C(OC)C(C)(C)C)c1` (mixture of isomers) [Example 128] the pEC50 was 8.49. `COc1cc(-c2ccc(C3CCc4ccc([C@H](C5CC5)[C@H](C)C(=O)O)cc4O3)cc2C(OC)C(C)(C)C)ccn1` (mixture of isomers) [Example 129] showed a pEC50 of 9.30. For `COc1cc(-c2ccc(C3CCc4ccc([C@H](C5CC5)[C@H](C)C(=O)O)cc4O3)cc2C(OC)C2CC2)c(F)cn1` (mixture of isomers) [Example 130], the pEC50 was 9.05. For `COc1ccc(F)c(-c2cnc(C3CCc4ccc([C@H](C5CC5)[C@H](C)C(=O)O)cc4O3)cn2)c1` (mixture of isomers) [Example 131], the pEC50 was 8.77. Compound `COc1ccc(F)c(-c2ccc(C3CCc4ccc([C@H](C5CC5)[C@H](C)C(=O)O)cc4O3)nc2N2CCC2)c1` (mixture of isomers) [Example 132] has a pEC50 of 7.74. Compound `COc1cc(-c2ccc(C3CCc4ccc([C@H](C5CC5)[C@H](C)C(=O)O)cc4O3)c(F)c2)ccn1` (mixture of isomers) [Example 133, (2S,3R)-3-cyclopropyl-3-(2-(2-fluoro-4-(2-methoxypyridin-4-yl)phenyl)-chroman-7-yl)-2-methylpropanoic acid] has a pEC50 of 8.92. `COc1ccc(F)c(-c2ccc(C3CCc4ccc([C@H](C5CC5)[C@H](C)C(=O)O)nc4O3)cc2)c1` (mixture of isomers) [Example 137] showed a pEC50 of 6.34. Work on `COc1ccc(F)c(-c2ccc(C3CCc4ccc([C@@H](CC(=O)O)C5CC5)cc4O3)cc2)c1` (single isomer, unassigned) [Example 61] yielded a pEC50 of 7.44. `COc1ccc(F)c(-c2ccc(C3CCc4ccc([C@@H](CC(=O)O)C5CC5)cc4O3)cc2)c1` (single isomer, unassigned) [Example 62] was tested, and the pEC50 was 7.74. `COc1ccc(F)c(-c2ccc([C@@H]3CCc4ccc([C@H](C5CC5)[C@H](C)C(=O)O)cc4O3)cc2)c1` (single isomer, unassigned) [Example 63] gave a pEC50 of 8.48. In the case of `COc1ccc(F)c(-c2ccc([C@H]3CCc4ccc([C@H](C5CC5)[C@H](C)C(=O)O)cc4O3)cc2)c1` (single isomer, unassigned) [Example 64], the pEC50 was 8.96. Work on `COc1ccc(F)c(-c2ccc(C3CCc4ccc([C@H](C5CC5)[C@@H](C)C(=O)O)cc4O3)cc2)c1` (single isomer, unassigned) [Example 65] yielded a pEC50 of 7.29. In the case of `COc1ccc(F)c(-c2ccc(C3CCc4ccc([C@H](C5CC5)[C@@H](C)C(=O)O)cc4O3)cc2)c1` (single isomer, unassigned) [Example 66], the pEC50 was 7.28. For `C[C@H](C(=O)O)[C@H](c1ccc2c(c1)OC(c1ccc(-c3cc(O)ccc3F)cc1)CC2)C1CC1` (single isomer, unassigned) [Example 67], the pEC50 was 7.68. For `C[C@H](C(=O)O)[C@H](c1ccc2c(c1)OC(c1ccc(-c3cc(O)ccc3F)cc1)CC2)C1CC1` (single isomer, unassigned) [Example 68], the pEC50 was 8.72.

Same assay, conditions: HEK cells stably expressing human GPR40, Table 3, read-out: Human IP1 activity
`COc1ccc(F)c(-c2ccc(C3COc4ccc([C@H](C5CC5)[C@H](C)C(=O)O)c(F)c4O3)nc2)c1` (mixture of isomers) [Example 165] showed a pEC50 of 8.59. For `COc1ccc(F)c(-c2ccc(C3COc4ccc([C@@H](CC(=O)O)C5CC5)cc4O3)cc2)c1` (mixture of isomers) [Example 166], the pEC50 was 7.73. Compound `COc1ccc(F)c(-c2ccc(C3COc4ccc([C@H](C5CC5)[C@H](C)C(=O)O)cc4O3)cc2OC(F)(F)F)c1` (mixture of isomers) [Example 169] has a pEC50 of 8.02.

— US9840512B2, “Antidiabetic bicyclic compounds” (Merck Sharp & Dohme Corp., priority 2013, dated 2017)
